# Experimental data reported in patent US6204293A, “Inhibitors of protein isoprenyl transferases” (University of Pittsburgh, priority 1998, dated 2001).
# Counter-ions that a name gives are not always drawn.
# Molecular target: T1, Rat brain protein farnesyltransferase (Rattus norvegicus, UniProt Q02293+Q04631)
# T1 construct: Rat brain protein farnesyltransferase activity is measured; from tissue; host or cells: rat brain
# Experiment: % inhibition of farnesylation, scintillation proximity assay with biotin-K Ras B fragment
# Assay type: biochemical
# Conditions: Table 1; 1 × 10^-5 M
# Text: The ability of the compounds of the invention to inhibit protein farnesyltransferase or protein geranylgeranyltransferase can be measured according to the method of Moores, et al., J. Biol. Chem. 266: 14603 (1991) or the method of Vogt, et al., J. Biol. Chem. 270:660-664 (1995). In addition, procedures for determination of the inhibition of farnesylation of the oncogene protein Ras are described by Goldstein, et al., J. Biol. Chem., 266:15575-15578 (1991) and by Singh in U.S. Pat. No. 5,245,061.
# In addition, in vitro inhibition of protein farnesyltransferase may be measured by the following procedure. Rat brain protein farnesyltransferase activity is measured using an Amersham Life Science commercial scintillation proximity assay kit and substituting a biotin-K Ras B fragment (biotin-[…]CO2 H), 0.1 mM final concentration, for the biotin-lamin substrate provided by Amersham. The enzyme is purified according to Reiss, Y., et al., Cell, 62: 81-88 (1990), utilizing steps one through three.
# The % inhibition of protein farnesyltransferase was determined for representative compounds of the invention.
# T1 sequence (Q02293 whole entry, one chain of several): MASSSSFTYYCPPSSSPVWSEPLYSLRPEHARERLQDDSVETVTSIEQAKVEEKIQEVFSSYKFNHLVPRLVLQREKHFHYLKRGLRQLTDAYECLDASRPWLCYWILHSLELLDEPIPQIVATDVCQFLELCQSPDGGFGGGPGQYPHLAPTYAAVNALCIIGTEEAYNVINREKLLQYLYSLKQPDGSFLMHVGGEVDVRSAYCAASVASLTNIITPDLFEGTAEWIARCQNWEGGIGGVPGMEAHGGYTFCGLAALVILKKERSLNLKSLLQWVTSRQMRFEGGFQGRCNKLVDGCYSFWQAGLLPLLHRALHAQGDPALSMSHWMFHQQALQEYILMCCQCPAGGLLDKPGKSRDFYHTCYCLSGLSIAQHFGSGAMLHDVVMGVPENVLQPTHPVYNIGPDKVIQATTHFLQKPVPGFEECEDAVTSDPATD
row,SMILES,% inhibition at 1 × 10^-5 M [%]
1,CSCC[C@H](NC(=O)c1ccc(CNCCc2cccs2)cc1-c1ccccc1)C(=O)O [Example 369],87
2,CSCC[C@H](NC(=O)c1ccc(CNc2cc(C)ns2)cc1-c1ccccc1)C(=O)O [Example 373],76
3,CSCC[C@H](NC(=O)c1ccc(CNc2cc[nH]n2)cc1-c1ccccc1)C(=O)O [Example 370],86
4,C=C[C@@H](CC1CCCCC1)NCc1ccc(C(=O)N[C@@H](CCSC)C(=O)O)c(-c2ccccc2)c1 [Example 664],75
5,CSCC[C@H](NC(=O)c1ccc(CNCc2cc(Cl)cc(Cl)c2)cc1-c1ccccc1)C(=O)O [Example 712],69

# Same assay, conditions: Table 2; 1 × 10^-6 M
row,SMILES,% inhibition at 1 × 10^-6 M [%]
1,CSCC[C@H](NC(=O)c1ccc(CN2CCN(c3ccccc3)CC2)cc1-c1ccccc1C)C(=O)O [Example 867],71
2,CSCC[C@H](NC(=O)c1ccc(/C=C/c2ccc3ccccc3c2)cc1-c1ccccc1C)C(=O)O [Example 465],92
3,CSCC[C@H](NC(=O)c1ccc(CCc2cccc(-c3ccccc3)c2)cc1-c1ccccc1C)C(=O)[O-].[Li+] [Example 793],94
4,CSCC[C@H](NC(=O)c1ccc(CN(C(C)C)C2(Cc3ccccc3)CC2)cc1-c1ccccc1C)C(=O)O [Example 325],99
5,CSCC[C@H](NC(=O)c1ccc(CCc2ccc3ccccc3c2)cc1-c1ccccc1C)C(=O)O [Example 468],96
6,Cc1ccccc1-c1cc(CN(C2CC2)C2(Cc3ccccc3)CCCC2)ccc1C(=O)N[C@@H](CCS(C)(=O)=O)C(=O)O [Example 345],91
7,CCCCON(CCC1CCCCC1)Cc1ccc(C(=O)N[C@@H](CCS(C)(=O)=O)C(=O)O)c(-c2ccccc2C)c1 [Example 298],43
8,CSCC[C@H](NC(=O)c1ccc(CNc2ccc(N3CCCCC3)cc2)cc1-c1ccccc1)C(=O)O [Example 697],39
9,CSCC[C@H](NC(=O)c1ccc(CN(C(C)C)C2(Cc3ccccc3)CCCC2)cc1-c1ccccc1C)C(=O)O [Example 343],72
10,CSCC[C@H](NC(=O)c1ccc(NC(=O)C2CCC(=O)N2)cc1-c1ccccc1)C(=O)O (some centres unmarked) [Example 202],31
11,CSCC[C@H](NC(=O)c1ccc(-c2ccc(-c3ccccc3)cc2)cc1-c1ccccc1C)C(=O)[O-].[Li+] [Example 788],44
12,CSCC[C@H](NC(=O)c1ccc(CNCc2ccccc2)cc1-c1ccccc1)C(=O)O.Cl [Example 936],69
13,COC(=O)[C@H](CCSC)NC(=O)c1ccc(NC(=O)[C@@H]2CSCN2)cc1-c1ccccc1.Cl [Example 164],92
14,CSCCC(NC(=O)c1ccc(NC(=O)C2CCCNC2)cc1-c1ccccc1)C(=O)O (centres unmarked) [Example 231],50
15,CSCC[C@H](NC(=O)c1ccc(CNc2ccc(S(=O)(=O)Nc3onc(C)c3C)cc2)cc1-c1ccccc1C)C(=O)O [Example 726],81
16,CSCC[C@H](NC(=O)c1ccc(CNc2ccccc2C(N)=O)cc1-c1ccccc1)C(=O)O [Example 644],54
17,CNCC(=O)Nc1ccc(C(=O)N[C@@H](CCSC)C(=O)O)c(-c2ccccc2)c1 [Example 749],84
18,CSCC[C@H](NC(=O)c1ccc(CN(C(C)C)C(C)(C)CC2CCCCC2)cc1-c1ccccc1C)C(=O)O [Example 318],98

# Same assay, conditions: Table 3; 1 × 10^-7 M
row,SMILES,% inhibition at 1 × 10^-7 M [%]
1,CCCC[C@H](CC1CCCCC1)NCc1ccc(C(=O)N[C@@H](CCSC)C(=O)O)c(-c2ccccc2C)c1 [Example 615],94
2,CCCCS(=O)(=O)N(Cc1ccc(C(=O)N[C@@H](CCSC)C(=O)O)c(-c2ccccc2C)c1)[C@H](CSCC)CC1CCCCC1 [Example 950],71
3,CCSC[C@H](CC(C)C)N(C)Cc1ccc(C(=O)N[C@@H](CCSC)C(=O)O)c(-c2ccccc2C)c1 [Example 906],88
4,CSCC[C@H](NC(=O)c1ccc(C#Cc2cncnc2)cc1-c1ccccc1C)C(=O)[O-].[Li+] [Example 493],51
5,CCSC[C@H](CC1CCCCC1)N(Cc1ccc(C(=O)N[C@@H](CCSC)C(=O)O)c(-c2ccccc2C)c1)C(=O)OC(C)(C)C [Example 948],75
6,CSCC[C@H](NC(=O)c1ccc(CN[C@H](/C=C\CC(C)C)CC2CCCCC2)cc1-c1ccccc1C)C(=O)O [Example 526],96
7,CSCC[C@H](NC(=O)c1ccc(CN(CCC2CCCCC2)S(C)(=O)=O)cc1-c1ccccc1C)C(=O)O [Example 611],95

# Same assay, conditions: Table 4; 1 × 10^-8 M
row,SMILES,% inhibition at 1 × 10^-8 M [%]
1,CSCC[C@H](NC(=O)c1ccc(NC[C@H]2NCC[C@H]2S)cc1-c1ccccc1)C(=O)O [Example 960],> 50
2,CCSC[C@H](CC1CCCCC1)N(C=O)Cc1ccc(C(=O)N[C@@H](CCSC)C(=O)O)c(-c2ccccc2C)c1 [Example 946],52
3,CSCC[C@H](NC(=O)c1ccc(CN(Cc2ccccc2)c2ccc([N+](=O)[O-])cc2)cc1-c1ccccc1C)C(=O)O [Example 843],96

# Same assay, conditions: read-out: % inhibition at 0.01 μM (**); Table 6; ** footnote 0.01 μM (title: 0.01 mM)
row,SMILES,inhibition at 0.01 µM [%]
1,"CSCC[C@H](NC(=O)c1ccc(CO[C@@H](CC2CCCCC2)C(=O)N2CCS(=O)(=O)CC2)cc1-c1ccccc1C)C(=O)O [Example 1348, N-[4-(3-cyclohexyl-N-thiomorpholin-S,S-dioxide-4-ylpropion-2-yloxymethyl)-2-(2-methylphenyl)benzoyl]methionine, Lithium Salt]",78

# Same assay, conditions: read-out: % inhibition at 0.1 μM (*)
row,SMILES,inhibition at 0.1 µM [%]
1,"CCCOc1cccc(COCc2ccc(C(=O)N[C@@H](CCSC)C(=O)O)c(-c3ccccc3C)c2)c1 [Example 1209, N-[4-(3-(1-Propoxy)benzyloxymethyl)-2-(2-methylphenyl)benzoyl]methionine lithium salt]",87

# Same assay, conditions: read-out: % inhibition at 0.1 μM (*); Table 6; * footnote 0.1 μM (title: 0.1 mM)
row,SMILES,inhibition at 0.1 µM [%]
1,"CCCCC(CCC1CCCCC1)OCc1ccc(C(=O)N[C@@H](CCSC)C(=O)O)c(-c2ccccc2C)c1 (some centres unmarked) [Example 1192, N-[4-(1-Cyclohexylheptan-3-yloxymethyl-2-(2-methylphenyl)benzoyl]methioninelithium salt]",91

# Same assay, conditions: read-out: % inhibition at 1 × 10^-6 M
row,SMILES,inhibition at 1 µM [%]
1,"CSCC[C@H](NC(=O)c1ccc(COC2(c3ccccc3)CCN(C(=O)OC(C)(C)C)CC2)cc1-c1ccccc1C)C(=O)O [Example 816, N-[4-(1-t-butoxycarbonyl-4-phenylpiperidin-4-yloxymethyl)-2-(2-methylphenyl)benzoyl]methionine lithium salt]",87

# Same assay, conditions: read-out: % inhibition at 1 × 10^-6 M; Table 2; 1 × 10^-6 M
row,SMILES,inhibition at 1 µM [%]
1,"CSCC[C@H](NC(=O)c1ccc(COCC2CCCO2)cc1-c1ccccc1)C(=O)O (some centres unmarked) [Example 288, [4-(2-tetrahydrofurylmethyloxymethyl)-2-phenylbenzoyl]methionine]",22
2,"CSCC[C@H](NC(=O)c1ccc(COCc2ccc(CN(C)C)o2)cc1-c1ccccc1C)C(=O)O [Example 435, N-[4-(5-N,N-dimethylaminomethylfuran-2-ylmethoxymethyl)-2-(2-methylphenyl)benzoyl]methionine]",96

# Same assay, conditions: read-out: % inhibition at 1 × 10^-7 M
row,SMILES,inhibition at 0.1 µM [%]
1,"CSCC[C@H](NC(=O)c1ccc(COCc2ccc(-c3cccc([N+](=O)[O-])c3)o2)cc1-c1ccccc1C)C(=O)O [Example 440, N-[4-(5-(3-nitrophenyl)furan-2-ylmethoxymethyl)-2-(2-methylphenyl)benzoyl]methionine lithium salt]",92
2,"CSCC[C@H](NC(=O)c1ccc(COCc2ccccc2)cc1-c1ccccc1C)C(=O)O [Example 571, N-[4-(benzyloxymethyl)-2-(2-methylphenyl)benzoyl]methionine lithium salt]",88

# Same assay, conditions: read-out: % inhibition at 1 × 10^-7 M; Table 3; 1 × 10^-7 M
row,SMILES,inhibition at 0.1 µM [%]
1,CSCC[C@H](NC(=O)c1ccc(COCCCCC2CCCCC2)cc1-c1ccccc1C)C(=O)O [Example 600],93
2,"CSCC[C@H](NC(=O)c1ccc(COCc2ccc(C)o2)cc1-c1ccccc1C)C(=O)O [Example 532, N-[4-(5-methylfuran-2-ylmethoxymethyl)-2-(2-methylphenyl)benzoyl]methioninelithium salt]",88
3,CSCC[C@H](NC(=O)c1ccc(CSc2ccc(C)cc2C)cc1-c1ccccc1C)C(=O)O [Example 741],89
4,"COc1ncc(COCc2ccc(C(=O)N[C@@H](CCSC)C(=O)O)c(-c3ccccc3C)c2)s1 [Example 896, N-[4-(2-methoxythiazol-5-ylmethoxymethyl)-2-(2-methylphenylbenzoyl]methioninelithium salt]",96

# Same assay, conditions: read-out: % inhibition at 1 × 10^-8 M
row,SMILES,inhibition at 0.01 µM [%]
1,"CSCC[C@H](NC(=O)c1ccc(COCc2cnc(-c3ccccc3Cl)o2)cc1-c1ccccc1C)C(=O)O [Example 892, N-[4-(2-(2-chlorophenyl)oxazol-5-ylmethoxymethyl)-2-(2-methylphenyl)benzoyl]methionine lithium salt]",59
2,"COc1cccc(COCc2ccc(C(=O)N[C@@H](CCSC)C(=O)O)c(-c3ccccc3C)c2)c1 [Example 932, N-[4-(3-methoxybenzyloxymethyl)-2-(2-methylphenyl)benzoyl]methionine lithium salt]",60
